Patent EP1985629A1, “Pro-apoptotic molecules and therapeutic uses thereof” (UNIVERSITA DEGLI STUDI DI GENOVA, priority 2007, dated 2008)
Where a SMILES comes first, the peptide text is derived from it. [ ]: non-standard residue; d: D form. Aib = CC(C)(N)C(=O)O

Legend:
[1] = Peptides stability in medium with 10% FBS or in 100% FBS (HPLC-MS); format: in vitro ADME; settings: medium (RPMI 1640) with 10% FBS, 37°C, 32 µM; calculated by linear regression
Procedure: Compounds were added to the medium solution of serum 10% or 100% FBS at the final concentration of 32 µM. Several extraction mixtures were attempted: MeOH; MeOH with 0,1% trifluoroacetic acid (TFA); (H2O: MeOH) 1:1, 1:4, 4;1. A perchloric acid (PCA) protein precipitation protocol was also tried. […] In both cases ice-cold methanol was added to the peptide solution. The mixture was centrifuged and the resulting supernatant was then added with ice-cold methanol (alone or containing 0,1% TFA) at a 1:1 final ratio and this procedure was repeated twice. Before extraction peptides were incubated in 10% FBS or 100% FBS at 37°C and, at different incubation times (0', 6, 24 and 48 hours), a sample of 50 µl was collected to be analyzed by HPLC-MS.

[2] = Circular dichroism, relative content of secondary structure elements; format: physicochemical; design: key to α-Helix / β-Strands / β-Turns / Random: relative content as fraction, from CDSSTR deconvolution; settings: CDSSTR deconvolution
Procedure: Circular dichroism (CD) spectra in the far-UV region (190-260 nm) were collected on a Jasco J-715 spectropolarimeter using a 0.1 cm path-length cuvette. Temperature was kept at 25°C by a Peltier device. Peptide concentration was determined from the absorption of the aromatic residues at 280 nm.
Peptides solutions: Bim-BH3Y and Bim-BH3YA2Aib were suspended in water and potassium hydroxide was added up to complete solubilization. 072RB was dissolved in water. Concentration of stock solutions was about 0.1 mg/ml. For circular dichroism measurements, stock solutions were diluted in 10 mM potassium phosphate buffer, pH 7.
The relative content of secondary structure elements was calculated with the deconvolution program CDSSTR [31] (Table 2). […] 072RB has the highest helical content in the set examined here (0.30 α-helix percent).

Bcl-XL = target: T1, Bcl-XL (Homo sapiens, UniProt Q07817, S2L); test: Fluorescence anisotropy binding and competition binding assay; settings: competition binding assay: BakF-BH3 2E-8 M, competitor peptide 2E-7 M, Bcl-XL 2E-8 M to 1E-6 M; 45 min, 30°C; read-out: Weighted mean Kd
T1 construct: with the C-terminus truncated; His6; made in house; host or cells: Escherichia coli BL21 (pLys)
Procedure: Fluorescence Anisotropy was monitored with a Polarion Instrument (Tecan, Austria): excitation wavelength = 485 nm, emission wavelength = 535 nm. […] Anisotropy values were studied at a fixed concentration of fluoresceinated Bak BH3 molecule (2E-8 M), a fixed concentration of peptide inhibitors (2E-7 M) and increasing concentrations of Bel-XL (from 2E-8 M to 1E-6 M). Experiments were performed in 96-wells black non-binding plates (Corning), the experimental volume was always 200 µl / well. Reagents were mixed at room temperature and maintained at a constant temperature (30°C) during the measurements. Anisotropy measurements were performed at different times of incubation to assess the stability of the reactions. […]
For simple binding experiments we evaluated the Kd using a nonlinear regression analysis [NLIN SAS] to fit the Lundblad equation [38]. […]
We calculated the expected Anisotropy value solving a third degree equation obtained extending the simple binding equation to a competitive binding inhibition assay. […]
Point estimates of each equilibrium constant were evaluated using meta-analytical tools weighting each experimental result for its estimated variance. […]
Fluorescence Anisotropy (FA) is a quantitative technique to analyze the interaction of a smaller fluorescent molecule with a larger non fluorescent molecule. […]

[3] = relative content, 10 mM potassium phosphate buffer, pH 7, 25°C

T1 sequence (Q07817 1-212 S2L): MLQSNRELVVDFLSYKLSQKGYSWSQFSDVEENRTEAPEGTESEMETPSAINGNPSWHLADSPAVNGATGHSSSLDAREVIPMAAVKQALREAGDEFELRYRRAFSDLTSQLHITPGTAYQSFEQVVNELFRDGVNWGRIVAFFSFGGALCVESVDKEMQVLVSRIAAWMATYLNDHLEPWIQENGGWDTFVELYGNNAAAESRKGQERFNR

- half-life [1]: 99,0 h
- relative content of helices [2]: 0.15 α-helix percent
- Random [2, 3]: 0.56
- α-Helix [2, 3]: 0.15
- β-Strands [2, 3]: 0.14
- β-Turns [2, 3]: 0.15
- Kd (Bcl-XL): 12 nM
Compound: CC[C@H](C)[C@H](NC(=O)[C@H](CCCNC(=N)N)NC(=O)[C@H](CCCNC(=N)N)NC(=O)[C@H](CC(C)C)NC(=O)[C@H](CCC(=O)O)NC(=O)[C@H](CCC(N)=O)NC(=O)C(C)(C)NC(=O)[C@@H](NC(=O)[C@H](Cc1ccc(O)cc1)NC(=O)[C@@H](NC(=O)[C@H](CCC(=O)O)NC(=O)[C@@H]1CCCN1C(=O)[C@H](CCCNC(=N)N)NC(=O)[C@H](CCSC)NC(=O)[C@@H](N)CC(=O)O)[C@@H](C)CC)[C@@H](C)CC)C(=O)NCC(=O)N[C@@H](CC(=O)O)C(=O)N[C@@H](C)C(=O)N[C@@H](Cc1ccccc1)C(=O)N[C@@H](CC(N)=O)C(=O)NC(C)(C)C(=O)N[C@@H](Cc1ccc(O)cc1)C(N)=O [Bim-BH3YA2Aib] (H-DMRPEIYI[Aib]QELRRIGDAFN[Aib]Y-NH2; N-terminus and C-terminus assumed)
